In brackets after ≈: the same amount, converted by molar mass.
How the values were obtained:
[1] = Critical micellar concentration; type: physicochemical
Experimental: “Self-assembly” of amphiphilic molecules is understood to be the spontaneous organisation, into spherical micelles, of amphiphilic molecules in aqueous media at a concentration greater than the critical micellar concentration or CMC.
The critical micellar concentration of the amphiphilic molecule II-4 as described hereinbefore was determined in experiments to be 0.082 mg/ml.

physchem = settings: for Molar level of inclusion: polymerised micelles at 10 mg/ml, 50° C. 12 hours, molar ratio medicament/(medicament + amphiphilic II-4) × 100; for Level of inclusion by weight: polymerised micelles of amphiphilic II-4 at 10 mg/ml, stirring at 50° C. for 12 hours, weight ratio medicament/(medicament + transporter) × 100; for Number of molecules per micelle: polymerised micelles, molar ratio medicament/amphiphilic II-4 × 100 amphiphilics per micelle
Experimental: At the end of the inclusion sequence, the solution is filtered in order to remove the excess of non-included active ingredient.
The level of inclusion of S39625 is determined by the reverse-phase HPLC method. This technique is based on the difference in the interaction of molecules between the mobile phase and the stationary phase. This difference affects the retention times for those molecules. For given HPLC conditions, the same molecule always has the same retention time. The reverse-phase HPLC conditions for determination of the level of inclusion of S39625 are an RP-18^c grafted silica column for the stationary phase and a gradient of water and of acetonitrile from 5% to 100% for the mobile phase. Detection of the S39625 at the column exit is carried out by a UV detector at a wavelength of 385 nm. A standard curve for S39625 in acetonitrile was produced by reverse HPLC.

[2] = Solubility of the active ingredient molecule in water; type: physicochemical; settings: free molecule, without micelles

| SMILES | Critical micellar concentration [1] | solubility at 12 h (physchem; 50 °C, aqueous with cosolvent or surfactant or cyclodextrin, thermodynamic from solid) | Molar level of inclusion (physchem) | Level of inclusion by weight (physchem) | Level of inclusion by weight (physchem; listed as paclitaxel) | Number of molecules per micelle (physchem) | Solubility in water (physchem) | Solubility of the molecule in water [2] |
| --- | --- | --- | --- | --- | --- | --- | --- | --- |
| CCCC#CC#CCCC(=O)NCCCCC(C(=O)O)N(CC(=O)O)CC(=O)O (stereo not shown) [II-4] | 0.082 mg/mL |  |  |  |  |  |  |  |
| CC(=O)O[C@H]1C(=O)[C@@]2(C)[C@H]([C@H](OC(=O)c3ccccc3)[C@]3(O)C[C@H](OC(=O)[C@H](O)[C@@H](NC(=O)c4ccccc4)c4ccccc4)C(C)=C1C3(C)C)[C@]1(OC(C)=O)CO[C@@H]1C[C@@H]2O [Paclitaxel, paclitaxel, reference compound] |  | 4550 µg/mL (≈ 5.33 mM) | 25% | 31% | 33% | 33 |  |  |
| c1cc2ccc3cccc4ccc(c1)c2c34 [Pyrene, pyrene, reference compound] |  |  | 63% | 34% |  | 167 |  |  |
| CCC1(O)C(=O)Cc2c1cc1n(c2=O)Cc2c-1nc1cc3c(cc1c2C1CCC1)OCO3 (stereo not shown) [S 39625] |  |  | 56% | 48% |  | 125 | 9000 µg/mL (≈ 20.9 mM) | 0.09 µg/mL |
| CN(C)CC[C@H](CSc1ccccc1)Nc1ccc(S(=O)(=O)NC(=O)c2ccc3c(c2)CC[C@@H]2CN(Cc4ccccc4-c4ccc(Cl)cc4)CCN32)cc1[N+](=O)[O-] [S 44563] |  |  | 36% | 45% |  | 56 | 8300 µg/mL (≈ 9.89 mM) | 2.00 µg/mL |

Reference: patent US8663660B2, “Polymerized micelles” (Les Laboratories Servier, priority 2008, dated 2014)
